Experimental data from patent publication US8815772B2, “Fungicidal heterocyclic carboxamides” (E I du Pont de Nemours and Company, priority 2012, dated 2014).
Marks after values point to notes of the source that are not given here.

Key:
[1] = tested on: Puccinia recondita f. sp. tritici; assay: Test G: wheat leaf rust, preventive spray on wheat seedlings, visual disease rating
Text: (§2) General protocol for preparing test suspensions for Tests A-H: the test compounds were first dissolved in acetone in an amount equal to 3% of the final volume and then suspended at the desired concentration (in ppm) in acetone and purified water (50/50 mix by volume) containing 250 ppm of the surfactant Trem® 014 (polyhydric alcohol esters). The resulting test suspensions were then used in Tests A-H. Spraying a 200 ppm test suspension to the point of run-off on the test plants was the equivalent of a rate of 600 g/ha. Unless otherwise indicated, the rating values indicate a 200 ppm test suspension was used.
The test suspension was sprayed to the point of run-off on wheat seedlings. The following day the seedlings were inoculated with a spore suspension of Puccinia recondita f. sp. tritici (the causal agent of wheat leaf rust) and incubated in a saturated atmosphere at 20° C. for 24 h, and then moved to a growth chamber at 20° C. for 6 days, after which time visual disease ratings were made.
(§3) An asterisk “*” next to the rating value indicates a 40 ppm test suspension was used, a double asterisk “**” next to the rating value indicates a 130 ppm test suspension was used.

[2] = tested on: Blumeria graminis f. sp. tritici; assay: Test H: wheat powdery mildew, preventive spray on wheat seedlings, visual disease rating
Text: General protocol for preparing test suspensions for Tests A-H: the test compounds were first dissolved in acetone in an amount equal to 3% of the final volume and then suspended at the desired concentration (in ppm) in acetone and purified water (50/50 mix by volume) containing 250 ppm of the surfactant Trem® 014 (polyhydric alcohol esters). The resulting test suspensions were then used in Tests A-H. Spraying a 200 ppm test suspension to the point of run-off on the test plants was the equivalent of a rate of 600 g/ha. Unless otherwise indicated, the rating values indicate a 200 ppm test suspension was used. (In Table A, an asterisk “*” next to the rating value indicates a 40 ppm test suspension was used; a double asterisk “**” next to the rating value indicates a 130 ppm.)
The test suspension was sprayed to the point of run-off on wheat seedlings. The following day the seedlings were inoculated with a spore dust of Blumeria graminis f. sp. tritici (also known as Erysiphe graminis f. sp. tritici, the causal agent of wheat powdery mildew) and incubated in a growth chamber at 20° C. for 8 days, after which time visual disease ratings were made.
as §3

[3] = tested on: Botrytis cinerea; assay: Test B: tomato botrytis, preventive spray on tomato seedlings, visual disease rating; conditions: for Test B rating (disease control): rating without asterisk, 100 = 100% disease control, 0 = no disease control relative to the controls
Text: as §2
The test suspension was sprayed to the point of run-off on tomato seedlings. The following day the seedlings were inoculated with a spore suspension of Botrytis cinerea (the causal agent of tomato botrytis) and incubated in saturated atmosphere at 20° C. for 48 h, and then moved to a growth chamber at 24-27° C. for 2-3 days, after which time visual disease ratings were made.
A dash (-) indicates no test results. An asterisk “*” next to the rating value indicates a 40 ppm test suspension was used, a double asterisk “**” next to the rating value indicates a 130 ppm test suspension was used.

[4] = tested on: cucumber seedlings; assay: Test I: phytotoxicity to the cucumber seedlings of the test units; assay type: in vivo; conditions: 250 ppm active ingredient applied to soil, 7 days
Experimental: Control of the southern root-knot nematode (Meloidogyne incognita) through contact and/or systemic means was evaluated in test units consisting of small open containers filled with a sandy soil mixture and cucumber seedlings.
Test compounds were formulated using a solution containing 50% acetone and 50% water. Test compounds were applied directly to the soil of the test units at concentrations of 250 or 50 ppm active ingredient. Each test was replicated 3 times. After treatment, the test units were allowed to dry for 1 h, after which time about 250 second-stage juvenile (J2) larvae were pipetted into the soil. The test units were held at 27° C. and watered as needed for 7 days.
Nematocidal efficacy was determined by the amount of root gall formation observed when compared to an untreated control. No gall formation was indicative of 100% nematode control. Gall formation equivalent to that found in the untreated control was indicative of 0% control. No nematode control rating was given to compounds showing significant phytotoxicity.

[5] = tested on: Septoria tritici; assay: Test F: wheat leaf blotch, preventive spray on wheat seedlings, visual disease rating; assay type: in vivo
Text: (§1) A dash (-) indicates no test results.

[6] = tested on: Septoria nodorum; assay: Test E: Septoria glume blotch, preventive spray on wheat seedlings, visual disease rating; assay type: in vivo
Text: as §1

[7] = tested on: Phytophthora infestans; assay type: in vivo; conditions: rating without asterisk; 100 = 100% disease control, 0 = no disease control relative to the controls
[8] = tested on: Alternaria solani; assay: Test C: tomato early blight, preventive spray on tomato seedlings, visual disease rating; assay type: in vivo; conditions: rating without asterisk; 100 = 100% disease control, 0 = no disease control relative to the controls
Text: as §1

[9] = tested on: Plasmopara viticola; assay: Test A: grape downy mildew, curative spray on grape seedlings, visual disease rating; assay type: in vivo; conditions: rating without asterisk; 100 = 100% disease control, 0 = no disease control relative to the controls
Text: Upon removal, visual disease ratings were made. […] A dash (-) indicates no test results.

[10] = rating without asterisk, 100 = 100% disease control, 0 = no disease control relative to the controls

3-difluoromethyl)-N-[3′,5′-difluoro-4′-(1-methyl-1H-pyrazol-3-yl)[1,1′-biphenyl]-2-yl]-1-methyl-1H-pyrazole [Compound 232]
Test G rating (100 = 100% disease control, 0 = no disease control relative to the controls) ([1]; no asterisk: standard test suspension, wheat leaf rust): 100%
Test H rating (100 = 100% disease control, 0 = no disease control relative to the controls) ([2]; no asterisk: standard test suspension, wheat powdery mildew): 97%
Test B rating (100 = 100% disease control, 0 = no disease control relative to the controls) ([3]; no asterisk: standard test suspension, tomato botrytis): 81%

O=C(NCCc1ccc(-n2ccc(C(F)(F)F)n2)cc1)c1ccccc1C(F)(F)F [Compound 5, 2-(trifluoromethyl)-N-[2-[4-[3-(trifluoromethyl)-1H-pyrazol-1-yl]phenyl]ethyl]benzamide]
phytotoxicity [4]: no significant phytotoxicity
Test F rating (disease control) [5, 10]: 100%
Test G rating (disease control) [1, 10]: 0%
Test E rating (disease control) [6, 10]: 0%
Test D rating (disease control) [7]: 0%
Test H rating (disease control) [2, 10]: 96%
Test B rating (disease control) [3]: 17%
Test C rating (disease control) [8]: 83%

O=C(Nc1ccccc1-c1cc(F)c(-n2ccc(C(F)(F)F)n2)c(F)c1)c1cccnc1Cl [Compound 170, 2-chloro-N-[3′,5′-difluoro-4′-[3-(trifluoromethyl)-1H-pyrazol-1-yl][1,1′-biphenyl]-2-yl]-3-pyridinecarboxamide]
Test F rating (disease control) [5, 10]: 100%
Test G rating (disease control) [1, 10]: 100%
Test E rating (disease control) [6, 10]: 0%
Test D rating (disease control) [7]: 0%
Test H rating (disease control) [2, 10]: 100%
Test B rating (disease control) [3]: 0%
Test A rating (disease control) [9]: 0%

Cn1cc(C(=O)Nc2ccccc2-c2cc(F)c(-n3ccc(C(F)(F)F)n3)c(F)c2)c(C(F)F)n1 [Compound 173, 3-(difluoromethyl)-N-[3′,5′-difluoro-4′-[3-(trifluoromethyl)-1H-pyrazol-1-yl][1,1′-biphenyl]-2-yl]-1-methyl-1H-pyrazole-4-carboxamide]
Test F rating (disease control) [5, 10]: 100%
Test G rating (disease control) [1, 10]: 100%
Test E rating (disease control) [6, 10]: 100%
Test D rating (disease control) [7]: 0%
Test H rating (disease control) [2, 10]: 100%
Test B rating (disease control) [3]: 72%
Test A rating (disease control) [9]: 0%

O=C(NCC(F)(F)c1ccc(-n2ccc(C(F)(F)F)n2)cc1Cl)c1ncccc1C(F)(F)F [Compound 150, N-[2-[2-chloro-4-[3-(trifluoromethyl)-1H-pyrazol-1-yl]phenyl]-2,2-difluoroethyl]-3-(trifluoromethyl)-2-pyridinecarboxamide]
phytotoxicity [4]: no significant phytotoxicity
Test F rating (disease control) ([5]; * 40 ppm test suspension): 100* %
Test G rating (disease control) ([1]; * 40 ppm test suspension): 0* %
Test E rating (disease control) ([6]; * 40 ppm test suspension): 100* %
Test H rating (disease control) ([2]; * 40 ppm test suspension): 100* %

O=C(NCCc1ccc(-n2ccc(C(F)(F)F)n2)cc1Cl)c1ncccc1C(F)(F)F [Compound 40, N-[2-[2-chloro-4-[3-(trifluoromethyl)-1H-pyrazol-1-yl]phenyl]ethyl]-3-(trifluoromethyl)-2-pyridinecarboxamide]
phytotoxicity [4]: no significant phytotoxicity
Test F rating (disease control) [5, 10]: 100%
Test G rating (disease control) [1, 10]: 0%
Test E rating (disease control) [6, 10]: 100%
Test D rating (disease control) [7]: 0%
Test H rating (disease control) [2, 10]: 100%
Test B rating (disease control) [3]: 66%

O=C(Nc1ccccc1-c1cc(F)c(-n2ccc(C(F)(F)F)n2)c(F)c1)c1ncccc1C(F)(F)F [Compound 172, N-[3′,5′-difluoro-4′-[3-(trifluoromethyl)-1H-pyrazol-yl][1,1′-biphenyl]-2-yl]-3-(trifluoromethyl)-2-pyridinecarboxamide]
Test F rating (disease control) [5, 10]: 100%
Test G rating (disease control) [1, 10]: 100%
Test E rating (disease control) [6, 10]: 100%
Test D rating (disease control) [7]: 0%
Test H rating (disease control) [2, 10]: 100%
Test B rating (disease control) [3]: 65%
Test A rating (disease control) [9]: 0%

O=C(NCCc1ncc(-n2ccc(C(F)(F)F)n2)cc1Cl)c1ccccc1C(F)(F)F [Compound 85, N-[2-[3-chloro-5-[(3-trifluoromethyl)-1H-pyrazol-1-yl]-2-pyridinyl]ethyl]-2-(trifluoromethyl)benzamide]
Test F rating (disease control) [5, 10]: 100%
Test G rating (disease control) [1, 10]: 0%
Test E rating (disease control) [6, 10]: 100%
Test D rating (disease control) [7]: 0%
Test H rating (disease control) [2, 10]: 100%
Test B rating (disease control) [3]: 95%
Test A rating (disease control) [9]: 0%

CC(Cc1ccc(-n2ccc(C(F)(F)F)n2)cc1Cl)NC(=O)c1nccnc1Cl (stereo not drawn) [Compound 1]
Test F rating (disease control) [5, 10]: 100%
Test G rating (disease control) [1, 10]: 54%
Test E rating (disease control) [6, 10]: 100%
Test D rating (disease control) [7]: 0%
Test H rating (disease control) [2, 10]: 100%
Test B rating (disease control) [3]: 99%
